Results from PubChem BioAssay (NCI).
Values joined by “and” are separate entries in the source; they are usually repeats but may differ in a detail not shown here. Equal entries are not always repeated.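 Values below derive from 48-hour exposures of cells grown in 96-well plates, with endpoints linearly interpolated between the two concentrations bracketing the appropriate inhibition level. Here, GI50 denotes the concentration required for 50% inhibition of growth. At the TGI there is no net growth.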 Where a SMILES comes first, the peptide text is derived from it. Bridges are numbered along the chain shown (N, C = ends). [ ]: non-standard residue; d: D form. The star is where a group is joined. ξ: configuration not given here. ξDab(CH2SO3H) = NC(CCNCS(=O)(=O)O)C(=O)O; Heptanoyl(6-Me) = CC(C)CCCCC(=O)*; Dab = NCC[CH](N)C(=O)O

Key:
Test in all cases: NCI tumour cell line growth inhibition, 48 h
SNB-75 CNS = test system: SNB-75 CNS
UO-31 renal = test system: UO-31 renal
SK-MEL-28 melanoma = test system: SK-MEL-28 melanoma
OVCAR-5 ovarian = test system: OVCAR-5 ovarian
MALME-3M melanoma = test system: MALME-3M melanoma
UACC-62 melanoma = test system: UACC-62 melanoma
NCI-H23 lung = test system: NCI-H23 lung
HOP-92 NSCLC = test system: HOP-92 NSCLC
BT-549 breast = test system: BT-549 breast
MDA-MB-435 = test system: MDA-MB-435

Structure (SMILES) | GI50 (SNB-75 CNS) [µM] | TGI (SNB-75 CNS) [µM] | GI50 (UO-31 renal) [µM] | TGI (UO-31 renal) [µM] | GI50 (SK-MEL-28 melanoma) | TGI (SK-MEL-28 melanoma) [µM] | GI50 (OVCAR-5 ovarian) [µM] | TGI (OVCAR-5 ovarian) [µM] | GI50 (MALME-3M melanoma) | TGI (MALME-3M melanoma) [µM] | GI50 (UACC-62 melanoma) [µM] | TGI (UACC-62 melanoma) [µM] | GI50 (NCI-H23 lung) [µM] | TGI (NCI-H23 lung) [µM] | GI50 (HOP-92 NSCLC) [µM] | TGI (HOP-92 NSCLC) [µM] | GI50 (BT-549 breast) [µM] | TGI (BT-549 breast) [µM] | GI50 (MDA-MB-435) [µM] | TGI (MDA-MB-435) [µM]
NC1CCCCC1N.O=[Se]([O-])[O-].[Pt+4] (centres undefined) | 66.3 | > 100 | 1.05 | 16.7 | 2.01 µM | 32.9 | 1.83 | 27.9 | 0.986 µM | 5.26 | 1.33 | > 41.8 | 1.51 | 17.1 | 25.3 | 82.1 | – | – | – | –
CCOC(=O)NC/C=C/COC1CCCCO1 (centres undefined) | – | > 100 | – | > 100 | – | > 100 | – | – | – | > 100 | – | > 100 | – | – | – | – | – | – | – | –
COc1ccc2c(O)c(/C=C3\N=Nc4ccccc43)oc2c1C[C@@H]1CCNC[C@H]1F | 8.46 | 21.5 | 7.55 | 22.1 | – | – | 10.5 | 24 | 3.33 µM | 22.5 | – | – | 10.6 | 24.6 | 13.3 | 29.5 | 12.8 | 26.1 | 11.3 | 24.4
N#Cc1c(N)n2c(nc1=Nc1ccc(Cl)cc1)sc1cc(Cl)ccc12 | 5.07 | > 100 | – | – | 5.74 µM and 2.8 µM | > 100 | – | – | 6.35 µM and 14.8 µM | > 100 | 2.85 | > 100 | – | 42.4 | – | – | 24.8 | > 100 | 6.18 | > 100
CCC(C)C1NC(=O)C(CCNCS(=O)(=O)O)NC(=O)C(NC(=O)C(CCNCS(=O)(=O)O)NC(=O)C(NC(=O)C(CCNCS(=O)(=O)O)NC(=O)CCCCC(C)C)C(C)O)CCNC(=O)C(C(C)O)NC(=O)C(CCNCS(=O)(=O)O)NC(=O)C(CCNCS(=O)(=O)O)NC(=O)C(C(C)CC)NC1=O (centres undefined) ({Heptanoyl(6-Me)}-[ξDab(CH2SO3H)]T[ξDab(CH2SO3H)][Dab][ξDab(CH2SO3H)]II[ξDab(CH2SO3H)][ξDab(CH2SO3H)]T; lactam 4-C; configuration not given here) | 1.58 | > 25 | > 25 | > 25 | 2.72 µM | > 25 | 24 | > 25 | > 25 µM | > 25 | 7.44 | > 25 | 7.41 | > 25 | – | – | 6.27 | > 25 | 0.93 | 5.02
C=C1C(=O)O[C@H]2C[C@@H]1CC/C(C)=C/CC/C(C)=C/CC[C@@]2(C)O | 70.8 | > 100 | 30.9 | 87.4 | 37.2 µM | > 100 | > 100 | > 100 | – | – | 44.1 | > 100 | 7.51 | > 100 | 19.5 | 42.7 | 24.2 | 59.9 | 57.5 | > 100
CC(N)(/C=C/c1ccccc1)C(=O)O (centres undefined) | – | – | – | > 100 | – | > 100 | – | > 100 | – | > 100 | – | > 100 | – | > 100 | – | > 100 | – | > 100 | – | > 100
COc1ccc(Sc2nc3cc(N)cc(N)c3nc2-c2ccccc2)cc1 | – | – | > 100 | > 100 | 24.4 µM | > 100 | > 100 | > 100 | 33.2 µM | 95 | 38 | > 100 | > 100 | > 100 | – | – | – | – | > 100 | > 100
